Literature values, collected in patent publication US8618066B1 (priority 2003, dated 2013).
“Also recorded” adds a separate entry of the source.

system: Gram+ & Gram− bacteria, fungi, virus, mammalian/cancer cells; conditions: cited from earlier work

| Substance | Activity |
| --- | --- |
| SEQ ID No. 32: synthetic antifungal peptide, Table 1 (FFKLRF) | Fungi |
| RatNP-3: peptide, source Rat (CSCRTSSCRFGERLSGACRLNGRIYRLCC; RatNP-3; listed as Rattus norvegicus) | Gram+ & Gram−, Virus, Fungi |
| Thanatin: peptide, source Podisus maculiventris (GSKKPVPIIYCNRRTGKCQRM; listed as Podisus maculiventris) | Gram+ & Gram−, Fungi |
| P-18: antimicrobial peptide, Table 1 (KWKLFKKIPKFLHLAKKF; listed as Penaeus vannamei) | Gram+ & Gram−, Fungi, Cancer |
| PN-AMP: peptide, source Japenese morning glory | Gram+, Fungi |
| SEQ ID No. 42: synthetic antifungal peptide, Table 1 (RFKLRF) | Fungi |
| SEQ ID No. 175: synthetic antifungal peptide, Table 1 (WTFRYC) | Fungi |
| SEQ ID No. 27: synthetic antifungal peptide, Table 1 (WRF) | Fungi |
| SEQ ID No. 34: synthetic antifungal peptide, Table 1 (HFKLRF) | Fungi |
| Protegrin 5: peptide, source Pig (RGGRLCYCRPRFCVCVGR; Protegrin 5; listed as Sus scrofa) | Gram+ & Gram−, Virus, Fungi |
| SEQ ID No. 37: synthetic antifungal peptide, Table 1 (LFKLRF) | Fungi |
| Neutrophil defensin 2 (RMAD-2): peptide, source Rhesus macaque (ACYCRIPACLAGERRYGTCFYMGRVWAFCC; neutrophil defensin 2 (RMAD-2); listed as Macaca mulatta) | Gram+ & Gram−, Fungi |
| MUC7 20- Mer: peptide, source Human (LAHQKPFIRKSYKCLHKRCR; MUC7 20-Mer; listed as Homo sapiens) | Gram+ & Gram−, Fungi |
| Histone H2b-3 (HLP-3) (Fragment): source Rainbow trout (PDPAKTAPKKKSKKAVT; Oncorhynchus mykiss; Histone H2B-3(HLP-3)(Fragment)) | Fungi |
| Tracheal antimicrobial peptide: peptide, source Bovine (NPVSCVRNKGICVPIRCPGSMKQIGTCVGRAVKCCRKK; Tracheal antimicrobial peptide; listed as Bos taurus) | Gram+ & Gram−, Fungi |
| HNP-3 Defensin: peptide, source Human | Gram+ & Gram−, Virus, Fungi |
| SEQ ID No. 186: synthetic antifungal peptide, Table 1 (MPSTAASTRVPQTTMNFNGYCVVM; listed as Neurospora crassa) | Fungi |
| FRLKFHF [SEQ ID No. 197] | Gram+ & Gram−, Fungi |
| Ranatuerin-2CB: peptide, source Green frog (GLFLDTLKGLAGKLLQGLKCIKAGCKP; Rana clamitans; Ranatuerin-2CB) | Gram+ & Gram−, Fungi |
| HNP-6 Defensin: peptide, source Human (STRAFTCHCRRSCYSTEYSYGTCTVMGINHRFCCL; HNP-6 Defensin; listed as Homo sapiens) | Gram+ & Gram−, Fungi |
| Hepcidin 20: peptide, source Human (ICIFCCGCCHRSKCGMCCKT; Hepcidin 20; listed as Homo sapiens) | Fungi |
| SEQ ID No. 43: synthetic antifungal peptide, Table 1 (SFKLRF) | Fungi |
| Aurein 1.1: peptide, source Southern bell frog (GLFDIIKKIAESI; Aurein 1.1; listed as Litoria raniformis) | Gram+ & Gram−, Fungi |
| Brevinin-1BB: peptide, source Rio Grande leopard frog (FLPAIAGMAAKFLPKIFCAISKKC; Brevinin-1BB; listed as Rana berlandieri) | Gram+ & Gram−, Fungi |
| Protegrin 4: peptide, source Pig (RGGRLCYCRGWICFCVGR; Protegrin 4; listed as Sus scrofa) | Gram+ & Gram−, Virus, Fungi |
| Melanotropin alpha (Alpha-MSH): peptide, source Bovine (SYSMEHFRWGKPV; Melanotropin alpha (Alpha-MSH); listed as Bos taurus) | Gram+, Fungi |

| Substance | Activity |
| --- | --- |
| Protegrin 2: peptide, source Pig (RGGRLCYCRRRFCICV; Protegrin 2; listed as Sus scrofa) | Gram+ & Gram−, Virus, Fungi |
| Histatin 8: antimicrobial peptide, Table 1 (KFHEKHHSHRGY; Histatin 8) | Gram+ & Gram−, Fungi |
| Buforin I: peptide, source Asian toad (AGRGKQGGKVRAKAKTRSSRAGLQFPVGRVHRLLRKGNY; Bufo bufo gargarizans; Buforin 1) | Gram+ & Gram−, Fungi |
| GNCP-2: peptide, source Guinea pig (RCICTTRTCRFPYRRLGTCLFQNRVYTFCC; GNCP-2; listed as Cavia cutleri) | Gram+ & Gram−, Virus, Fungi |
| Nigrocin 1: peptide, source Rana nigromaculata (GLLDSIKGMAISAGKGALQNLLKVASCKLDKTC; Nigrocin 1; listed as Rana nigromaculata) | Gram+ & Gram−, Fungi |
| Spingerin: peptide, source Pseudacanthotermes spiniger (HVDKKVADKVLLLKQLRIMRLLTRL; Pseudacanthotermas spiniger; Spingerin) | Gram+ & Gram−, Fungi |
| Nigrocin 2: peptide, source Rana nigromaculata (GLLSKVLGVGKKVLCGVSGLC; Nigrocin 2; listed as Rana nigromaculata) | Gram+ & Gram−, Fungi |
| SEQ ID No. 182: synthetic antifungal peptide, Table 1 (YMPQGPKLQLFHW) | Fungi |
| SEQ ID No. 31: synthetic antifungal peptide, Table 1 (FHLRF) | Fungi |
| Lactoferricin B: peptide, source Bovine (FKCRRWQWRMKKLGAPSITCVRRAF; Lactoferricin B; listed as Bos taurus) | Gram+ & Gram−, Virus, Fungi, |
| Dolabellanin B2: peptide, source Sea hare (SHQDCYEALHKCMASHSKPFSCSMKFHMCLQQQ; Dolabellanin B2; listed as Dolabella auricularia) | Gram+ & Gram−, Fungi |
| SEQ ID No. 179: synthetic antifungal peptide, Table 1 (WHWLSFSKGQPMY; listed as Saccharomyces kluyveri) | Fungi |
| GNCP-1: peptide, source Guinea pig (RRCICTTRTCRFPYRRLGTCIFQNRVYTFCC; GNCP-1; listed as Cavia cutleri) | Gram+ & Gram−, Virus, Fungi |
| Anti-fungal protein 1 (pafp-s): source Phytolacca Americana (AGCIKNGGRCNASAGPPYCCSSYCFQIAGQSYGVCKNR; listed as Phytolacca americana) | Fungi |
| SEQ ID No. 45: synthetic antifungal peptide, Table 1 (TFKLRF) | Fungi |
| HNP-1 Defensin: peptide, source Human | Gram+ & Gram−, Virus, Fungi |
| SEQ ID No. 190: synthetic antifungal peptide, Table 1 (WHWLQLKPGQPMY; listed as Saccharomyces cerevisiae) | Fungi |
| SEQ ID No. 47: synthetic antifungal peptide, Table 1 (WFKLRF) | Fungi |
| SEQ ID No. 25: synthetic antifungal peptide, Table 1 (FRF) | Fungi |
| Lingual antimicrobial peptide: peptide, source Bovine (GFTQGVRNSQSCRRNKGICVPIRCPGSMRQIGTCLGAQVKCCRRK; Lingual antimicrobial peptide; listed as Bos taurus) | Gram+ & Gram−, Fungi |
| Indolicidin: peptide, source Bos Taurus (ILPWKWPWWPWRR; listed as Bos taurus) | Gram+ & Gram−, Virus, Fungi |
| BMAP-34: peptide, source Bovine (GLFRRLRDSIRRGQQKILEKARRIGERIKDIFRG; BMAP-34; listed as Bos taurus) | Gram+ & Gram−, Fungi |
| Ranalexin-1CB: peptide, source Gree frog (FLGGLMKAFPAIICAVTKKC; Rana clamitans; Ranalexin-1CB) | Gram+ & Gram−, Fungi |
| NP-3A defensin: peptide, source Rabbit (GICACRRRFCPNSERFSGYCRVNGARYVRCCSRR; NP-3A defensin; listed as Oryctolagus cuniculus) | Gram+ & Gram−, Virus, Fungi |
| SEQ ID No. 28: synthetic antifungal peptide, Table 1 (HRF) | Fungi |
| Ib-AMP4: peptide, source Impatiens balsamina (GRRCCGWGPGRRYCRRWC; Ib-antimicrobial peptidic agent4; listed as Impatiens balsamina) | Gram+ Fungi |

same assay, conditions: classes of organisms/cells the peptide is active against; cited from earlier work

| Substance | Activity |
| --- | --- |
| Parabutoporin: peptide, source Scorpion (FKLGSFLKKAWKSKLAKKLRAKGKEMLKDYAKGLLEGGSEEVPGQ; Parabutoporin; listed as Parabuthus schlechteri) | Gram+ & Gram−, Fungi,; also recorded: Mammalian cells |
| Tricholongin: peptide, source Trichoderma longibrachiatum (AGFAAQAAASLAPVAAQQL; Tricholongin; listed as Trichoderma longibrachiatum) | Gram+ & Gram−, Fungi |
| ADENOREGULIN: peptide, source Two coloured leaf frong (GLWSKIKEVGKEAAKAAAKAAGKAALGAVSEAV; Phyllomedusa bicolor; Adenoregulin) | Gram+ & Gram−, Fungi |
| Melittin B | Gram+ & Gram−, Fungi,; also recorded: Mammalian cells |
| Dhvar5: peptide, source Synthesis (LLLFLLKKRKKRKY; Synthesis dhvar5) | Gram+ & Gram−, Fungi |
